The values below come from the supplement of paper PMC10307832.

Assay in all cases: relative viability (nuclei count vs DMSO), 5 days (fraction); higher = more cells survive
Compound in test [1]: O=C(CCCCCCNC(=O)c1cnc(N(c2ccccc2)c2ccccc2)nc1)NO [Ricolinostat] + CC(C)C[C@H](NC(=O)[C@H](Cc1ccccc1)NC(=O)c1cnccn1)B(O)O [Bortezomib] (partner 0.002 µM)
In outline:
(§1)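 Relative viability was taken as the ratio of nuclei in treated wells to nuclei in vehicle wells. Lung cancer cell lines in 1536-well plates received compounds by pin tool one day after seeding, either one drug alone or a fixed anchor-drug dose plus five library-drug doses (not always all listed) in √10 steps. Nuclei were counted on 4× images after 5 days of treatment, and values are medians of duplicate plates.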

Compound in the test “TGX 221 + Vorinostat”: CC1=CN2C(=O)C=C(N=C2C(=C1)C(C)NC3=CC=CC=C3)N4CCOCC4 [TGX 221] + O=C(CCCCCCC(=O)Nc1ccccc1)NO [Vorinostat] (partner 1 µM)
The essentials: as §1

Compound in the test “TGX 221 + Decitabine”: CC1=CN2C(=O)C=C(N=C2C(=C1)C(C)NC3=CC=CC=C3)N4CCOCC4 [TGX 221] + Nc1ncn([C@H]2C[C@H](O)[C@@H](CO)O2)c(=O)n1 [Decitabine] (partner 2 µM)
The essentials: as §1

Compound in test [2]: C1=CC=C(C(=C1)C2=CC=C(C=C2)C3=CSC4=C3C(=C(C(=O)N4)C#N)O)O + CCNC(=O)c1noc(-c2cc(C(C)C)c(O)cc2O)c1-c1ccc(CN2CCOCC2)cc1 [Luminespib] (partner 0.01 µM)
In outline: as §1

Consider NCI-H650, for which the relative viability amounted to 0.788 in test [1] (first compound 0.253 µM); 0.544 in test [1] (first compound 0.8 µM); 0.23 in test [1] (first compound 2.53 µM); 0.425 in the test with TGX 221 + Vorinostat (first compound 0.08 µM); 0.488 with TGX 221 + Vorinostat (first compound 0.253 µM); 0.459 in the test with TGX 221 + Vorinostat (first compound 0.8 µM). Besides, the relative viability is 0.542 with TGX 221 + Vorinostat (first compound 2.53 µM); 0.401 in the test with TGX 221 + Vorinostat (first compound 8 µM); 0.326 with TGX 221 + Decitabine (first compound 0.08 µM); 0.301 with TGX 221 + Decitabine (first compound 0.253 µM); 0.318 with TGX 221 + Decitabine (first compound 0.8 µM); 0.343 in the test with TGX 221 + Decitabine (first compound 2.53 µM). Further, the relative viability with TGX 221 + Decitabine (first compound 8 µM) came to 0.343; in test [2] (first compound 0.08 µM) it was 0.778; in test [2] (first compound 0.253 µM), 0.898; in test [2] (first compound 0.8 µM), 0.67; in test [2] (first compound 2.53 µM), 0.902; in test [2] (first compound 8 µM), 0.78.

In the case of NCI-H661, the relative viability in test [1] (first compound 0.253 µM) was 0.743; in test [1] (first compound 0.8 µM), 0.997; in test [1] (first compound 2.53 µM) it was 1.19; in the test with TGX 221 + Vorinostat (first compound 0.08 µM) it was 0.794; in the test with TGX 221 + Vorinostat (first compound 0.253 µM), 0.755; with TGX 221 + Vorinostat (first compound 0.8 µM), 0.78. Further, the relative viability in the test with TGX 221 + Vorinostat (first compound 2.53 µM) came out at 0.925; with TGX 221 + Vorinostat (first compound 8 µM), 0.785; with TGX 221 + Decitabine (first compound 0.08 µM), 0.537; in the test with TGX 221 + Decitabine (first compound 0.253 µM) it was 0.529; in the test with TGX 221 + Decitabine (first compound 0.8 µM) it was 0.56; with TGX 221 + Decitabine (first compound 2.53 µM), 0.564. Besides, the relative viability with TGX 221 + Decitabine (first compound 8 µM) amounted to 0.505; in test [2] (first compound 0.08 µM), 0.808; in test [2] (first compound 0.253 µM) it was 0.985; in test [2] (first compound 0.8 µM) it was 0.964; in test [2] (first compound 2.53 µM), 0.9; in test [2] (first compound 8 µM) it was 0.898.

For NCI-H727, the relative viability in test [1] (first compound 0.08 µM) was determined as 0.554; in test [1] (first compound 0.253 µM), 1.1; in test [1] (first compound 0.8 µM), 0.811; in test [1] (first compound 2.53 µM) it was 0.911; in the test with TGX 221 + Vorinostat (first compound 0.08 µM), 1.09; with TGX 221 + Vorinostat (first compound 0.253 µM), 1.06. Besides, the relative viability came to 1.14 with TGX 221 + Vorinostat (first compound 0.8 µM); 1.09 with TGX 221 + Vorinostat (first compound 2.53 µM); 1.19 with TGX 221 + Vorinostat (first compound 8 µM); 0.826 with TGX 221 + Decitabine (first compound 0.08 µM); 0.822 with TGX 221 + Decitabine (first compound 0.253 µM); 0.796 with TGX 221 + Decitabine (first compound 0.8 µM). Besides, the relative viability with TGX 221 + Decitabine (first compound 2.53 µM) worked out at 0.864; with TGX 221 + Decitabine (first compound 8 µM), 0.915; in test [2] (first compound 0.08 µM) it was 0.451; in test [2] (first compound 0.253 µM), 0.356; in test [2] (first compound 0.8 µM), 0.43; in test [2] (first compound 2.53 µM), 0.487. Moreover, the relative viability in test [2] (first compound 8 µM) was 0.341.

Consider NCI-H838, for which the relative viability worked out at 0.767 in test [1] (first compound 0.08 µM); 0.973 in test [1] (first compound 0.253 µM); 0.943 in test [1] (first compound 0.8 µM); 0.756 in test [1] (first compound 2.53 µM); 0.7 with TGX 221 + Vorinostat (first compound 0.08 µM); 0.67 with TGX 221 + Vorinostat (first compound 0.253 µM). Moreover, the relative viability was 0.635 in the test with TGX 221 + Vorinostat (first compound 0.8 µM); 0.668 with TGX 221 + Vorinostat (first compound 2.53 µM); 0.589 with TGX 221 + Vorinostat (first compound 8 µM); 0.443 in the test with TGX 221 + Decitabine (first compound 0.08 µM); 0.448 in the test with TGX 221 + Decitabine (first compound 0.253 µM); 0.462 with TGX 221 + Decitabine (first compound 0.8 µM). Moreover, the relative viability with TGX 221 + Decitabine (first compound 2.53 µM) was determined as 0.447; in the test with TGX 221 + Decitabine (first compound 8 µM), 0.452; in test [2] (first compound 0.08 µM), 0.276; in test [2] (first compound 0.253 µM), 0.333; in test [2] (first compound 0.8 µM), 0.242; in test [2] (first compound 2.53 µM) it was 0.197. Also, the relative viability in test [2] (first compound 8 µM) was determined as 0.329.

Take NCI-H1355: the relative viability in test [1] (first compound 0.253 µM) stood at 1.23; in test [1] (first compound 0.8 µM) it was 1.17; in test [1] (first compound 2.53 µM), 1.06; with TGX 221 + Vorinostat (first compound 0.08 µM), 0.614; with TGX 221 + Vorinostat (first compound 0.253 µM), 0.577; in the test with TGX 221 + Vorinostat (first compound 0.8 µM) it was 0.591. In addition, the relative viability came to 0.629 in the test with TGX 221 + Vorinostat (first compound 2.53 µM); 0.558 with TGX 221 + Vorinostat (first compound 8 µM); 0.35 in the test with TGX 221 + Decitabine (first compound 0.08 µM); 0.349 with TGX 221 + Decitabine (first compound 0.253 µM); 0.355 in the test with TGX 221 + Decitabine (first compound 0.8 µM); 0.325 in the test with TGX 221 + Decitabine (first compound 2.53 µM). Also, the relative viability with TGX 221 + Decitabine (first compound 8 µM) amounted to 0.309; in test [2] (first compound 0.08 µM), 0.542; in test [2] (first compound 0.253 µM), 0.681; in test [2] (first compound 0.8 µM) it was 0.727; in test [2] (first compound 2.53 µM), 0.61; in test [2] (first compound 8 µM), 0.533.

Consider NCI-H1437, for which the relative viability stood at 0.561 in test [1] (first compound 0.08 µM); 0.513 in test [1] (first compound 0.253 µM); 0.479 in test [1] (first compound 0.8 µM); 0.256 in test [1] (first compound 2.53 µM); 0.888 with TGX 221 + Vorinostat (first compound 0.08 µM); 0.922 with TGX 221 + Vorinostat (first compound 0.253 µM). The relative viability was 0.858 with TGX 221 + Vorinostat (first compound 0.8 µM); 0.852 with TGX 221 + Vorinostat (first compound 2.53 µM); 0.779 with TGX 221 + Vorinostat (first compound 8 µM); 0.574 with TGX 221 + Decitabine (first compound 0.08 µM); 0.56 with TGX 221 + Decitabine (first compound 0.253 µM); 0.619 with TGX 221 + Decitabine (first compound 0.8 µM). In addition, the relative viability in the test with TGX 221 + Decitabine (first compound 2.53 µM) stood at 0.545; in the test with TGX 221 + Decitabine (first compound 8 µM), 0.574; in test [2] (first compound 0.08 µM) it was 1.01; in test [2] (first compound 0.253 µM), 1.34; in test [2] (first compound 0.8 µM), 1.17; in test [2] (first compound 2.53 µM) it was 1.17. Besides, in test [2] (first compound 8 µM), the relative viability turned out to be 0.902.

As to NCI-H1650, the relative viability came out at 0.184 in test [1] (first compound 0.08 µM); 0.195 in test [1] (first compound 0.253 µM); 0.193 in test [1] (first compound 0.8 µM); 0.205 in test [1] (first compound 2.53 µM); 0.482 in the test with TGX 221 + Vorinostat (first compound 0.08 µM); 0.478 with TGX 221 + Vorinostat (first compound 0.253 µM). Moreover, the relative viability with TGX 221 + Vorinostat (first compound 0.8 µM) is 0.521; with TGX 221 + Vorinostat (first compound 2.53 µM) it was 0.676; in the test with TGX 221 + Vorinostat (first compound 8 µM), 0.48; in the test with TGX 221 + Decitabine (first compound 0.08 µM) it was 0.433; in the test with TGX 221 + Decitabine (first compound 0.253 µM) it was 0.376; with TGX 221 + Decitabine (first compound 0.8 µM), 0.386. Further, the relative viability with TGX 221 + Decitabine (first compound 2.53 µM) came out at 0.486; with TGX 221 + Decitabine (first compound 8 µM), 0.43; in test [2] (first compound 0.08 µM) it was 0.195; in test [2] (first compound 0.253 µM), 0.197; in test [2] (first compound 0.8 µM), 0.175; in test [2] (first compound 2.53 µM) it was 0.208. The relative viability in test [2] (first compound 8 µM) worked out at 0.2.
